Active and inactive are the calls of the source. No cut-off for these calls is given here.

The values below come from ChEMBL document CHEMBL1145423, “Synthesis and pharmacological evaluation of phenylethynyl[1,2,4]methyltriazines as analogues of 3-methyl-6-(phenylethynyl)pyridine” (J Med Chem, 2007).

In experiment [1] the target is Metabotropic glutamate receptor 1 (Homo sapiens) (UniProt Q13255). As to the kind of experiment: Antagonist activity at human mGluR1 receptor expressed in CHOK1 cells assessed as inhibition of glutamate-mediated internal calcium mobilization. In kind it is functional, cell-based. The note with it: CHO-K1. For orientation: Calcium assays in cells follow changes in intracellular calcium, usually with a dye or a luminescent sensor.

Experiment [2] has as its target Metabotropic glutamate receptor 5 (Homo sapiens, UniProt P41594). As to the kind of experiment: Antagonist activity at human mGluR5 receptor expressed in CHOK1 cells assessed as inhibition of glutamate-mediated internal calcium mobilization. In kind it is functional, cell-based, CHO-K1.

Metabotropic glutamate receptor 5, sequence (P41594 whole entry): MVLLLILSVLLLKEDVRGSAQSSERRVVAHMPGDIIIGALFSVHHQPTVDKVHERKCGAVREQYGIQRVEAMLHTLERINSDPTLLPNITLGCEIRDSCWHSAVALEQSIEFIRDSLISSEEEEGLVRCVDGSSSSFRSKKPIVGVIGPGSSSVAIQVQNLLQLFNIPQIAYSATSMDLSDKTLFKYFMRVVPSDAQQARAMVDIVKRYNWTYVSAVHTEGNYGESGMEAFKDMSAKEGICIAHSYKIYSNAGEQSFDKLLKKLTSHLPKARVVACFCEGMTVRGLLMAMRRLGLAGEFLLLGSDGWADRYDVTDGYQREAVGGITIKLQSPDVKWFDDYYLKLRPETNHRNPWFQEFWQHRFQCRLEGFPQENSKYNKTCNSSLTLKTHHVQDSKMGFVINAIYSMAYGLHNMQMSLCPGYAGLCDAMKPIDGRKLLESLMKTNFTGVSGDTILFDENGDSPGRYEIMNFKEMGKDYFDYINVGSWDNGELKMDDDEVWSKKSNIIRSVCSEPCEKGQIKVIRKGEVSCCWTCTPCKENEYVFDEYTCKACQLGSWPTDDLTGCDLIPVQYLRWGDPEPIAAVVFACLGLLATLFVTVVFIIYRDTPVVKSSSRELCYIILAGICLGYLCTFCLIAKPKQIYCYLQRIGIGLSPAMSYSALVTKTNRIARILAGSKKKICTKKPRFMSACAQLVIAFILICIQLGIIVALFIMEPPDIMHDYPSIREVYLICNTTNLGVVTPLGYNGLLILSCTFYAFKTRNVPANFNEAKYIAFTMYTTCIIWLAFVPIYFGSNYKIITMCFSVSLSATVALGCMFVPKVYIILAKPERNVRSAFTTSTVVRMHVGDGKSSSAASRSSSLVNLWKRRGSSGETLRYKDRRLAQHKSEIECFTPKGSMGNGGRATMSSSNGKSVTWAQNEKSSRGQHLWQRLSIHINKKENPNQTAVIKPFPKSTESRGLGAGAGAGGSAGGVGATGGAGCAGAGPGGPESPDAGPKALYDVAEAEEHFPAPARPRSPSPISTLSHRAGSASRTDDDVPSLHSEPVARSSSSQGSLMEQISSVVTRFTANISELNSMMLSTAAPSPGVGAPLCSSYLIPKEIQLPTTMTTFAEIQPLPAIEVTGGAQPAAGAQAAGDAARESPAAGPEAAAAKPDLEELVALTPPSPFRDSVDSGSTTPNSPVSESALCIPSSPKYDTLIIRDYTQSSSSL
Metabotropic glutamate receptor 1 (Homo sapiens), sequence (Q13255 19-1194 limits assumed): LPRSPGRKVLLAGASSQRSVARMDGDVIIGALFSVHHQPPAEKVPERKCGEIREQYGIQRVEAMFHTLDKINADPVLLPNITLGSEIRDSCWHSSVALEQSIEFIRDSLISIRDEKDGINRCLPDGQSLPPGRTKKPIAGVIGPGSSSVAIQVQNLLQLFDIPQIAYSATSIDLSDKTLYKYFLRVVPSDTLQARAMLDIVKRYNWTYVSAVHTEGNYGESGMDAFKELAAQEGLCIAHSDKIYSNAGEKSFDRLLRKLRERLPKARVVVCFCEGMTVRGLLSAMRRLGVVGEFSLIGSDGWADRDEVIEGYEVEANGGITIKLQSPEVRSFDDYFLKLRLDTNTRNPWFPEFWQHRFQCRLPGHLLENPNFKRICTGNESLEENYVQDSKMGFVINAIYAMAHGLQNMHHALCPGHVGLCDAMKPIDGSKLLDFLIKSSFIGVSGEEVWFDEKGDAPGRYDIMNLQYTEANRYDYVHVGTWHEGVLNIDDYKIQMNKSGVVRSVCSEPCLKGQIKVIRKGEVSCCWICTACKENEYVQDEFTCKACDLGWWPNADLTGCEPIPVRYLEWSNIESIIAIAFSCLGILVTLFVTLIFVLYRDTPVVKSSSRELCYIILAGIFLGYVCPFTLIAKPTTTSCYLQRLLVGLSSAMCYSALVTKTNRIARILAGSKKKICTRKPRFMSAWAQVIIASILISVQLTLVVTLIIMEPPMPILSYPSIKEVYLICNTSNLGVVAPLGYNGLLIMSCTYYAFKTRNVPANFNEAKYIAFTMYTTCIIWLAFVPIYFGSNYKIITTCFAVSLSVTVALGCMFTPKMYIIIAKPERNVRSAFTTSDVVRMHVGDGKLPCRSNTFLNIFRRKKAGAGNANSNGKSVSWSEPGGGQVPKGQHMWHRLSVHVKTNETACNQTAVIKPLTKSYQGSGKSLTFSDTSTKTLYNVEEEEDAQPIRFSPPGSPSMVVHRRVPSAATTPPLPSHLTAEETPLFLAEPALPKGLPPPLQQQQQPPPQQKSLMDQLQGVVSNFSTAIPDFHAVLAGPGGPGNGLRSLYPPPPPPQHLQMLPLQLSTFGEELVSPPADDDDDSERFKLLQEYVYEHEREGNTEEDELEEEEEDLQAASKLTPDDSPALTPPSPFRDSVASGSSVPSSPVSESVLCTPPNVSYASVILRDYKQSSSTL

`Cc1cnnc(C#Cc2ccccc2)n1`: the result in experiment [1] was inactive. Further, in experiment [2] (read-out: IC50), the IC50 was determined as 140 nM.

For `COc1cccc(C#Cc2nncc(C)n2)c1`, the outcome in experiment [1] was inactive. Moreover, the IC50 in experiment [2] (read-out: IC50) came out at 312 nM. Regarding `Cc1cnnc(C#Cc2ccc(F)cc2F)n1`, the IC50 entry in experiment [2] (cho-k1) was “Not Active”. `Cc1cnnc(C#Cc2cccc(C(F)(F)F)c2)n1`: the result in experiment [1] was inactive. In addition, the IC50 in experiment [2] (read-out: IC50) came out at 85 nM. In the case of `COc1ccc(C#Cc2nncc(C)n2)c(C)c1`, the IC50 entry in experiment [2] (cho-k1) is reported as “Not Active”. Same read-out and setting: to `COc1ccccc1C#Cc1nncc(C)n1` belongs “Not Active”.

On to `Cc1cnnc(C#Cc2ccccc2C)n1`, for which, in experiment [2] (cho-k1), the IC50 result is on record as “Not Active”.

For `Cc1cnnc(C#Cc2cccc(F)c2)n1`, the outcome in experiment [1] was inactive. In addition, the IC50 in experiment [2] (read-out: IC50) is 96 nM. Regarding `Cc1cnnc(C#Cc2ccc(-c3ccccc3)cc2)n1`, the outcome in experiment [1] was inactive. Besides, in experiment [2] (read-out: IC50), the IC50 was 510 nM. The like results for `Cc1cnnc(C#Cc2cccc(Br)c2)n1` were, in that order, “inactive” and 6 nM. In the same order, the values of `Cc1cnnc(C#Cc2ccc(F)c(C)c2)n1` are “inactive” and 132 nM. Regarding `Cc1cccc(C#Cc2nncc(C)n2)c1`, the result in experiment [1] was inactive. Also, in experiment [2] (read-out: IC50), the IC50 stood at 2.3 nM. With `Cc1cnnc(C#Cc2ccc3c(c2)OCO3)n1`, the IC50 entry in experiment [2] (cho-k1) is recorded as “Not Active”. On to `Cc1cnnc(C#Cc2ccc(C(F)(F)F)cc2)n1`, for which, in experiment [2] (cho-k1), the IC50 entry is on record as “Not Active”.

On to `Cc1cnnc(C#Cc2cc(C(F)(F)F)cc(C(F)(F)F)c2)n1`, for which the IC50 entry in experiment [2] (cho-k1) was “Not Active”.

As for `Cc1cnnc(C#Cc2cccc3ccccc23)n1`, the result in experiment [1] was inactive. The IC50 in experiment [2] (read-out: IC50) amounted to 8900 nM. As for `Cc1cnnc(C#Cc2ccc3ccccc3c2)n1`, the IC50 result in experiment [2] (cho-k1) is “Not Active”. On the same count and under the same terms, for `Cc1nncc(C#Cc2ccccc2)n1` the value was “Not Active”.

Turning to `Cc1cnnc(C#Cc2ccc(Oc3ccccc3)cc2)n1`, the result in experiment [1] was inactive. The IC50 in experiment [2] (read-out: IC50) amounted to 80 nM. Consider `Cc1cnnc(C#Cc2cccc(C#N)c2)n1`, for which the result in experiment [1] was inactive. In addition, in experiment [2] (read-out: IC50), the IC50 was 52 nM. Turning to `Cc1ccc(C)c(C#Cc2nncc(C)n2)c1`, in experiment [1], the outcome was inactive. Also, the IC50 in experiment [2] (read-out: IC50) was determined as 1890 nM. For the compound `Cc1cnnc(C#Cc2cccc(Cl)c2)n1`, in experiment [1], the result was inactive. Besides, the IC50 in experiment [2] (read-out: IC50) amounted to 4.2 nM. With `Cc1cnc(C#Cc2ccccc2)nn1`, the IC50 entry in experiment [2] (cho-k1) is on record as “Not Active”.

Usually IC50 stands for the point on the concentration scale where inhibition reaches its midpoint.
